Data from the SangsterLogP compilation.

assay: method code SF-AS, from DOI: 10.1016/0006-2952(77)90261-1, PMID: 588293; settings: not given

| Structure (SMILES) | logP |
| --- | --- |
| CCC1(CC(C)C(C)C)C(=O)NC(=O)NC1=O (configuration not stated) | 2.02 |

same assay, conditions: pH 7.4

| Structure (SMILES) | logD |
| --- | --- |
| C=C(Br)CC1(C(C)C)C(=O)NC(=O)N(C)C1=O (configuration not stated) | 2.11 |
| C=CCC1(C(C)C)C(=O)NC(=O)NC1=O | 1.22 |
| CCCCCCCC1(CC)C(=O)NC(=O)NC1=O | 2.91 |
| C=C(Br)CC1(C(C)CCC)C(=O)NC(=O)NC1=O (configuration not stated) | 2.09 |
| CCCCCCCCC1(CC)C(=O)NC(=O)NC1=O | 3.08 |
| C=C(Br)CC1(C(C)C)C(=O)NC(=O)NC1=O | 1.47 |
| C=CCC1(C(C)CCC)C(=O)NC(=O)NC1=O (configuration not stated) | 1.97 |
| C=C(Br)CC1(C(C)CC)C(=O)NC(=O)NC1=O (configuration not stated) | 1.72 |
| C=C(Br)CC1(C(C)CC)C(=O)NC(=O)N(C)C1=O (configuration not stated) | 2.43 |
| C=CCC1(C2C=CCC2)C(=O)NC(=O)NC1=O (configuration not stated) | 1.51 |
| CCC1(C2=CCCCCC2)C(=O)NC(=O)NC1=O | 2.17 |
| C=CCC1(CC(=C)Br)C(=O)NC(=O)NC1=O | 1.37 |
| CCC1(C2=CC3CCC(C2)C3)C(=O)NC(=O)N(C)C1=O (configuration not stated) | 3.15 |
| CCCCCCC1(CC)C(=O)NC(=O)NC1=O | 2.46 |
| C=CCC1(CC(C)(C)C)C(=O)NC(=O)NC1=O | 1.71 |
| CCCC1(CC)C(=O)NC(=O)NC1=O | 0.66 |
| C=CCC1(C2=CCCC2)C(=O)NC(=O)N(C)C1=O (configuration not stated) | 1.89 |
| CCC1(C2=CCCCC2)C(=O)NC(=O)N(C)C1=O (configuration not stated) | 2.25 |
| CCC1(C2=CC3CCC(C2)C3)C(=O)NC(=O)NC1=O (configuration not stated) | 2.53 |
| CCC1(C2=CCCCC2)C(=O)NC(=O)NC1=O | 1.77 |
| CCC1(C2=CCCCCC2)C(=O)NC(=O)N(C)C1=O (configuration not stated) | 2.82 |
